Experimental data: patent US11254686B1 (Corvus Pharmaceuticals, Inc., priority 2017, dated 2022)
Several values for one entry are separate records, joined by “and”; a condition that tells them apart may be missing. Equal entries are not always repeated.

Experiments:
Type in all cases: biochemical
adenosine A3 receptor = adenosine A3 receptor (Homo sapiens (Human), UniProt P0DMS8); experiment: Adenosine receptor activity assay (Table 1), A3 cAMP
adenosine A2A receptor = adenosine A2A receptor (Homo sapiens (Human), UniProt P29274); experiment: Adenosine receptor activity assay (Table 1), A2A activity; details: cAMP; read-out: Ave A2A cAMP IC50
Sequence of adenosine A2A receptor (P29274 whole entry): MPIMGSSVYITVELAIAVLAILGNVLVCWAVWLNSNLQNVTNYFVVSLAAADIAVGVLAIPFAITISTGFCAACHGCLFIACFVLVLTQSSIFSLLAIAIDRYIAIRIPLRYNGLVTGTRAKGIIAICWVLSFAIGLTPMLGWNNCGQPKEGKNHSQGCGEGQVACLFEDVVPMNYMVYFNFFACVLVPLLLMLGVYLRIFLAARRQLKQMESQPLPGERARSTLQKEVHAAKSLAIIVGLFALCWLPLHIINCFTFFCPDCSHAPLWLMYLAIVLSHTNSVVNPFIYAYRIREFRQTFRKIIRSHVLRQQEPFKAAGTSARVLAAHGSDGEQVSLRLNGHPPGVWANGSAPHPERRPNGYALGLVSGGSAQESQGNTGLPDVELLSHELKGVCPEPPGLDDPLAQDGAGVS

adenosine A2B receptor = adenosine A2B receptor (Homo sapiens (Human), UniProt P29275); experiment: Adenosine receptor activity assay (Table 1), A2B activity; details: for Ratio: A2A activity to the A2B activity, A2A/A2B; for IC50: cAMP, read-out: Ave A2B cAMP IC50
Sequence of adenosine A2B receptor (P29275 whole entry): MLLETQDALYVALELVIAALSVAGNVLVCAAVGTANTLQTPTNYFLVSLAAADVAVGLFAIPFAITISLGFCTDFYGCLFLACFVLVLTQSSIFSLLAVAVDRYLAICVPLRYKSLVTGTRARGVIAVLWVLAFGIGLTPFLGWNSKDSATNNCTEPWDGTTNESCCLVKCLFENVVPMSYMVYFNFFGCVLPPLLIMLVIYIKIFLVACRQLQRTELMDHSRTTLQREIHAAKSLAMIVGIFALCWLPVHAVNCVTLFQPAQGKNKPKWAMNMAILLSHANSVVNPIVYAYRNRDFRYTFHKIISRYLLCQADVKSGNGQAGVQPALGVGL

adenosine A1 receptor = adenosine A1 receptor (Homo sapiens (Human), UniProt P30542); experiment: Adenosine receptor activity assay (Table 1), A1 cAMP
Sequence of adenosine A1 receptor (P30542 whole entry): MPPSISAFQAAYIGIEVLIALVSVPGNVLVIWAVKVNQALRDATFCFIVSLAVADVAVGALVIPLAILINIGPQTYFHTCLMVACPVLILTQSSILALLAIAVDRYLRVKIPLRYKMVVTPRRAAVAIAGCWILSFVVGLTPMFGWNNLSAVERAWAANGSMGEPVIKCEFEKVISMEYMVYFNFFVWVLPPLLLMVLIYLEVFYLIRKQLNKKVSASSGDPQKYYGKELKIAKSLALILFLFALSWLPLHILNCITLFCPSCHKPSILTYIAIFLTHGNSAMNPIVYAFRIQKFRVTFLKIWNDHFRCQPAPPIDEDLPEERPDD

Sequence of adenosine A3 receptor (P0DMS8 whole entry): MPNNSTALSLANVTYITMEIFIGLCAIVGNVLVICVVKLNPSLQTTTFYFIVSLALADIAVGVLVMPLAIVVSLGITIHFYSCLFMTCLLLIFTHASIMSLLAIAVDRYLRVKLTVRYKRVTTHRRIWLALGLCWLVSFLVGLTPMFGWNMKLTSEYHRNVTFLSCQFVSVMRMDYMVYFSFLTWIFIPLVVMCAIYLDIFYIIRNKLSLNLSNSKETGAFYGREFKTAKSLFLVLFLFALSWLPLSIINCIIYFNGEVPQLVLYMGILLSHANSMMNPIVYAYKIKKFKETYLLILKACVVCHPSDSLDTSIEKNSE

| IC50 (adenosine A3 receptor) | IC50 (adenosine A2A receptor) | Ratio (adenosine A2B receptor) | IC50 (adenosine A2B receptor) | IC50 (adenosine A1 receptor) | Structure (SMILES) |
| --- | --- | --- | --- | --- | --- |
| 100 to 500 nM | < 10 nM | 0.95 | < 10 nM | > 500 nM | C[C@H](Nc1nc(C(=O)N2CC(NC(=O)NC3CCC3)C2)c2sccc2n1)c1cncc(F)c1 [Example Z623, (S)-1-Cyclobutyl-3-(1-(2-((1-(5-fluoropyridin-3-yl)ethyl)amino)thieno[3,2-d]pyrimidine-4-carbonyl)azetidin-3-yl)urea] |
| > 500 nM | 10 to 50 nM | 0.68 | 10 to 50 nM | > 500 nM | Cc1csc2c(C(=O)N3CC(NC(=O)c4cccc(Cl)c4)C3)nc(N[C@@H](C)c3cncc(F)c3)nc12 [Example Z625, (S)-3-Chloro-N-(1-(2-((1-(5-fluoropyridin-3-yl)ethyl)amino)-7-methylthieno[3,2-d]pyrimidine-4-carbonyl)azetidin-3-yl)benzamide] |
| 100 to 500 nM | < 10 nM | 0.85 | 10 to 50 nM | > 500 nM | Cc1cccc(C(=O)NC2CN(C(=O)c3nc(N[C@@H](C)c4cncc(F)c4)nc4ccsc34)C2)c1 [Example Z626, (S)—N-(1-(2-((1-(5-Fluoropyridin-3-yl)ethyl)amino)thieno[3,2-d]pyrimidine-4-carbonyl)azetidin-3-yl)-3-methylbenzamide] |
| 100 to 500 nM | < 10 nM | 0.15 and 0.25 | 10 to 50 nM | > 500 nM | C[C@H](Nc1nc(C(=O)N2CC(NC(=O)C3(C)CCC3)C2)c2sccc2n1)c1cncc(F)c1 [Example Z627, (S)—N-(1-(2-((1-(5-Fluoropyridin-3-yl)ethyl)amino)thieno[3,2-d]pyrimidine-4-carbonyl)azetidin-3-yl)-1-methylcyclobutane-1-carboxamide] |
| 100 to 500 nM | < 10 nM | 1.25 | < 10 nM | > 500 nM | C[C@H](Nc1nc(C(=O)N2CC[C@@H](C(=O)NOC3CCCC3)C2)c2sccc2n1)c1cncc(F)c1 [Example Z628, (R)—N-(Cyclopentyloxy)-1-(2-(((S)-1-(5-fluoropyridin-3-yl)ethyl)amino)thieno[3,2-d]pyrimidine-4-carbonyl)pyrrolidine-3-carboxamide] |
| > 500 nM | 10 to 50 nM | 2.40 | 10 to 50 nM | > 500 nM | C[C@H](Nc1nc(C(=O)N2CC(NC(=O)c3ccc(C(F)(F)F)o3)C2)c2sccc2n1)c1cncc(F)c1 [Example Z629, (S)—N-(1-(2-((1-(5-Fluoropyridin-3-yl)ethyl)amino)thieno[3,2-d]pyrimidine-4-carbonyl)azetidin-3-yl)-5-(trifluoromethyl)furan-2-carboxamide] |
| 10 to 50 nM | < 10 nM | 0.33 | 10 to 50 nM | > 500 nM | CCC(CC)NC(=O)NC1CN(C(=O)c2nc(N[C@@H](C)c3cncc(F)c3)nc3ccsc23)C1 [Example Z630, (S)-1-(1-(2-((1-(5-Fluoropyridin-3-yl)ethyl)amino)thieno[3,2-d]pyrimidine-4-carbonyl)azetidin-3-yl)-3-(pentan-3-yl)urea] |
| 10 to 50 nM | < 10 nM | 0.09 | 10 to 50 nM | > 500 nM | C[C@H](Nc1nc(C(=O)N2CC(NC(=O)C34CC5CC(CC(C5)C3)C4)C2)c2sccc2n1)c1cncc(F)c1 [Example Z631, (3S,5S,7S)—N-(1-(2-(((S)-1-(5-Fluoropyridin-3-yl)ethyl)amino)thieno[3,2-d]pyrimidine-4-carbonyl)azetidin-3-yl)adamantane-1-carboxamide] |
| 100 to 500 nM | < 10 nM | 1.12 | < 10 nM | > 500 nM | Cc1cc2nc(N[C@@H](C)c3cncc(F)c3)nc(C(=O)N3CC(NC(=O)c4ccc(C(F)(F)F)o4)C3)c2s1 [Example Z632, (S)—N-(1-(2-((1-(5-Fluoropyridin-3-yl)ethyl)amino)-6-methylthieno[3,2-d]pyrimidine-4-carbonyl)azetidin-3-yl)-5-(trifluoromethyl)furan-2-carboxamide] |
| 100 to 500 nM | 10 to 50 nM | 1.62 | < 10 nM | > 500 nM | C[C@H](Nc1nc(C(=O)N2CC(NC(=O)c3cccc(C(F)(F)F)c3)C2)c2sccc2n1)c1cncc(F)c1 [Example Z633, (S)—N-(1-(2-((1-(5-Fluoropyridin-3-yl)ethyl)amino)thieno[3,2-d]pyrimidine-4-carbonyl)azetidin-3-yl)-3-(trifluoromethyl)benzamide] |
| 100 to 500 nM | 10 to 50 nM | 2.22 | < 10 nM | > 500 nM | C[C@H](Nc1nc(C(=O)N2CC(NC(=O)Nc3ccccc3)C2)c2sccc2n1)c1cncc(F)c1 [Example Z634, (S)-1-(1-(2-((1-(5-Fluoropyridin-3-yl)ethyl)amino)thieno[3,2-d]pyrimidine-4-carbonyl)azetidin-3-yl)-3-phenylurea] |
| 100 to 500 nM | 10 to 50 nM | 2.06 | 10 to 50 nM | > 500 nM | COc1cccc(C(=O)NC2CN(C(=O)c3nc(N[C@@H](C)c4cncc(F)c4)nc4ccsc34)C2)c1 [Example Z635, (S)—N-(1-(2-((1-(5-Fluoropyridin-3-yl)ethyl)amino)thieno[3,2-d]pyrimidine-4-carbonyl)azetidin-3-yl)-3-methoxybenzamide] |
| > 500 nM | 50 to 100 nM | 3.72 | 10 to 50 nM | > 500 nM | C[C@H](Nc1nc(C(=O)N2CC(NC(=O)C3(C#N)CC3)C2)c2sccc2n1)c1cncc(F)c1 [Example Z636, (S)-1-Cyano-N-(1-(2-((1-(5-fluoropyridin-3-yl)ethyl)amino)thieno[3,2-d]pyrimidine-4-carbonyl)azetidin-3-yl)cyclopropane-1-carboxamide] |
| 10 to 50 nM | < 10 nM | 0.13 | 10 to 50 nM | > 500 nM | C[C@H](Nc1nc(C(=O)N2CC(NC(=O)C34CCC(CC3)CC4)C2)c2sccc2n1)c1cncc(F)c1 [Example Z637, (S)—N-(1-(2-((1-(5-Fluoropyridin-3-yl)ethyl)amino)thieno[3,2-d]pyrimidine-4-carbonyl)azetidin-3-yl)bicyclo[2.2.2]octane-1-carboxamide] |
| 50 to 100 nM | < 10 nM | 0.52 | 10 to 50 nM | > 500 nM | C[C@H](Nc1nc(C(=O)N2CC(NC(=O)C3CC(C)(C)C3)C2)c2sccc2n1)c1cncc(F)c1 [Example Z638, (S)—N-(1-(2-((1-(5-Fluoropyridin-3-yl)ethyl)amino)thieno[3,2-d]pyrimidine-4-carbonyl)azetidin-3-yl)-3,3-dimethylcyclobutane-1-carboxamide] |
| 100 to 500 nM | 10 to 50 nM | 0.98 | 10 to 50 nM | > 500 nM | C[C@H](Nc1nc(C(=O)N2CC(NC(=O)[C@H]3CC[C@H](C)CC3)C2)c2sccc2n1)c1cncc(F)c1 [Example Z639, Trans-N-(1-(2-(((S)-1-(5-fluoropyridin-3-yl)ethyl)amino)thieno[3,2-d]pyrimidine-4-carbonyl)azetidin-3-yl)-4-methylcyclohexane-1-carboxamide] |
| 100 to 500 nM | 10 to 50 nM | 1.24 | 10 to 50 nM | > 500 nM | C[C@H](Nc1nc(C(=O)N2CC(NC(=O)C3CCC(F)(F)CC3)C2)c2sccc2n1)c1cncc(F)c1 [Example Z640, (S)-4,4-Difluoro-N-(1-(2-((1-(5-fluoropyridin-3-yl)ethyl)amino)thieno[3,2-d]pyrimidine-4-carbonyl)azetidin-3-yl)cyclohexane-1-carboxamide] |
| 100 to 500 nM | 10 to 50 nM | 1.81 | < 10 nM | > 500 nM | C[C@H](Nc1nc(C(=O)N2CC(NC(=O)C3(C)CC3)C2)c2sccc2n1)c1cncc(Cl)c1 [Example Z641, (S)—N-(1-(2-((1-(5-Chloropyridin-3-yl)ethyl)amino)thieno[3,2-d]pyrimidine-4-carbonyl)azetidin-3-yl)-1-methylcyclopropane-1-carboxamide] |
| 100 to 500 nM | < 10 nM | 0.57 | 10 to 50 nM | > 500 nM | C[C@H](Nc1nc(C(=O)N2CC(NC(=O)C(C)(C)C)C2)c2sccc2n1)c1cncc(Cl)c1 [Example Z642, (S)—N-(1-(2-((1-(5-Chloropyridin-3-yl)ethyl)amino)thieno[3,2-d]pyrimidine-4-carbonyl)azetidin-3-yl)pivalamide] |
| 100 to 500 nM | < 10 nM | 0.19 | 10 to 50 nM | > 500 nM | C[C@H](Nc1nc(C(=O)N2CC(NC(=O)C3(C(F)(F)F)CCC3)C2)c2sccc2n1)c1cncc(F)c1 [Example Z643, (S)—N-(1-(2-((1-(5-Fluoropyridin-3-yl)ethyl)amino)thieno[3,2-d]pyrimidine-4-carbonyl)azetidin-3-yl)-1-(trifluoromethyl)cyclobutane-1-carboxamide] |
| 100 to 500 nM | < 10 nM | 0.59 | 10 to 50 nM | > 500 nM | C[C@H](Nc1nc(C(=O)N2CC(NC(=O)C3(C)CCC3)C2)c2sccc2n1)c1cncc(Cl)c1 [Example Z644, (S)—N-(1-(2-((1-(5-Chloropyridin-3-yl)ethyl)amino)thieno[3,2-d]pyrimidine-4-carbonyl)azetidin-3-yl)-1-methylcyclobutane-1-carboxamide] |
| 50 to 100 nM | 10 to 50 nM | 0.48 | 50 to 100 nM | > 500 nM | C[C@H](Nc1nc(C(=O)N2CC(NC(=O)c3ccc(-c4ccccc4)cc3)C2)c2sccc2n1)c1cncc(F)c1 [Example Z645, (S)—N-(1-(2-((1-(5-Fluoropyridin-3-yl)ethyl)amino)thieno[3,2-d]pyrimidine-4-carbonyl)azetidin-3-yl)-[1,1′-biphenyl]-4-carboxamide] |
